# Data from patent US10414774B2, “Compound useful for altering the levels of bile acids for the treatment of diabetes and cardiometabolc disease” (Merck Sharp & Dohme Corp., priority 2016, dated 2019).
# Target: T1, Human CYP8B1 (Homo sapiens, UniProt Q9UNU6)
# T1 sequence (Q9UNU6 1-501): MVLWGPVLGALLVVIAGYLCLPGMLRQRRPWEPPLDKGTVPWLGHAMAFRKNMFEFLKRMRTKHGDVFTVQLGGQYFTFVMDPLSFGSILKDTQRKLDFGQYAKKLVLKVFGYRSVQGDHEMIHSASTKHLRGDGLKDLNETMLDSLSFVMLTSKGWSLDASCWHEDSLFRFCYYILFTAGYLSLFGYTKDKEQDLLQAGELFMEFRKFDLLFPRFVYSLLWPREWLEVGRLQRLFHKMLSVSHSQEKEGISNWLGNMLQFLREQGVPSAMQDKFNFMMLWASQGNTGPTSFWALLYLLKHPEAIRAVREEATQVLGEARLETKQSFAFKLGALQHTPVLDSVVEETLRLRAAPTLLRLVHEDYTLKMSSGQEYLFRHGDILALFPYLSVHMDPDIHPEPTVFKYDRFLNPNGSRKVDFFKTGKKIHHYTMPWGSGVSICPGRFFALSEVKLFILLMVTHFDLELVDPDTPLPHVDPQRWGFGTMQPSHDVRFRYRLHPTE
# Experiment: Human CYP8B1 Liver Microsome Assay
# Settings: Human CYP8B1 IC50, human liver microsomes; substrate 7a-hydroxy-4-cholesten-3-one, NADPH; RapidFire MS detection of 7α,12α-dihydroxy-4-cholesten-3-one
# Description: To a 384 well polypropylene plate (Corning 3656), 250 nl of inhibitor in 100% DMSO (1.25% final DMSO concentration) was pre-plated using an Echo liquid handler (Labcyte Inc.). Human liver microsomes (Xenotech) were diluted in of 0.1 M phosphate buffer, pH 7.4, at a concentration of 65 μg/ml and 15 μL was added to the 384 well plate. The plates were incubated at ambient room temperature for 30 minutes. After pre-incubation with inhibitor, the reaction was initiated by adding 5 μl of substrate solution (4.0 μM 7a-hydroxy-4-cholesten-3-one (Toronto Research Chemicals), 2 mM of NADPH (Sigma), 0.1 M phosphate buffer (pH 7.4). The reaction was carried out for 45 minutes at ambient room temperature and was quenched by the addition of 50 μl of acetonitrile+0.1% vol/vol formic acid (FA)+300 nM 7α-hydroxy-4-cholesten-3-one-d7 (Toronto Research Chemicals). The plates were sealed and centrifuged at 3000 rpm for 5 minutes. Plates were loaded onto the Agilent RapidFire RF300 HTMS system, wherein samples were sipped for 600 ms, and the sip sensor detection signals the diversion of sample from the loop onto a C4 solid phase extraction (SPE) cartridge, where salts are washed off for 2500 ms with a mobile phase of water with 0.1% vol/vol FA at a flow rate of 1.5 ml/min. The column path was switched, and the sample was eluted off the cartridge and flowed into the mass spectrometer for 3000 ms with a mobile phase of acetonitrile and 0.1% vol/vol FA at a flow rate of 1.25 ml/min. The aspirator tip was washed separately with water and acetonitrile between sample aspirations (each for 600 ms) to minimize carryover contamination. Mass spectrometry was carried out using a Sciex API4000 triple quadrupole mass spectrometer (Applied Biosystems, Concord, ON, Canada) equipped with electrospray ionization (ESI) operated in the positive-ion mode. The product 7α,12α-dihydroxy-4-cholesten-3-one and internal standard 7α-hydroxy-4-cholsten-3-one-d7 were detected using multiple reaction monitoring (MRM) with Q1/Q3 transitions at m/z 417.3 to 381.3 and m/z 408.3 to 390.3, respectively, with a dwell time of 100 ms and a collision energy of 24 V for each transition. The mass spectrometer used an ESI voltage of 5000 V and a source temperature of 650° C. Extracted ion chromatograms for each transition were integrated and processed using the RapidFire Integrator software. The data for each well were normalized by monitoring product conversion with the ratio of AUCproduct/(AUCinternal standard). The data was then fitted to a four parameter logistic fit using ActivityBase Software to calculate an IC50 of the inhibitor.
row,Compound,IC50 [nM]
1,"COc1ccc2c(N3CC[C@H](C(=O)N4CCn5c(nnc5C(F)(F)F)C4)[C@H](C)C3)c(C#N)cnc2c1F [Example 2, 8-fluoro-7-methoxy-4-[(3S,4S)-3-methyl-4-{[3-(trifluoromethyl)-5,6-dihydro[1,2,4]triazolo[4,3-a]pyrazin-7(8H)-yl]carbonyl}piperidin-1-yl]quinoline-3-carbonitrile]",0.96
2,"Cc1ccc2nc(C)c(C#N)c(N3CCC(C(=O)N4CCn5c(nnc5C(F)(F)F)C4)CC3)c2c1 [Example 52, 2,6-dimethyl-4-(4-(3-(trifluoromethyl)-5,6,7,8-tetrahydro-[1,2,4]triazolo[4,3-a]pyrazine-7-carbonyl)piperidin-1-yl)quinoline-3-carbonitrile]",118
3,"COc1ccc2c(N3CC[C@@H](C(=O)N4CCn5c(nnc5C(F)(F)F)C4)[C@@H](C4CC4)C3)c(C#N)cnc2c1F [Example 77a, 4-[(3R,4R)-3-cyclopropyl-4-{[3-(trifluoromethyl)-5,6-dihydro[1,2,4]triazolo[4,3-a]pyrazin-7(8H)-yl]carbonyl}piperidin-1-yl]-8-fluoro-7-methoxyquinoline-3-carbonitrile]",231
4,"CC1CN(c2c(C#N)cnc3ccc(C(F)(F)F)cc23)CCC1C(=O)N1CCn2c(nnc2C(F)(F)F)C1 (stereo not shown) [Example 119, 4-(3-methyl-4-{[3-(trifluoromethyl)-5,6-dihydro[1,2,4]triazolo[4,3-a]pyrazin-7(8H)-yl]carbonyl}piperidin-1-yl)-6-(trifluoromethyl)quinoline-3-carbonitrile]",1.2
5,"C[C@@H]1CN(c2c(C#N)cnc3cc(OC(F)(F)F)ccc23)CC[C@@H]1C(=O)N1CCn2c(nnc2C(F)(F)F)C1 [Example 22, 4-[(3S,4S)-3-methyl-4-{[3-(trifluoromethyl)-5,6-dihydro[1,2,4]triazolo[4,3-a]pyrazin-7(8H)-yl]carbonyl}piperidin-1-yl]-7-(trifluoromethoxy)quinoline-3-carbonitrile]",0.22
6,"COc1ccc2c(N3CC[C@H](C(=O)N4CCn5c(nnc5C(F)(F)F)C4)[C@H](C)C3)c(C#N)cnc2c1C [Example 19, 7-methoxy-8-methyl-4-[(3S,4S)-3-methyl-4-{[3-(trifluoromethyl)-5,6-dihydro[1,2,4]triazolo[4,3-a]pyrazin-7(8H)-yl]carbonyl}piperidin-1-yl]quinoline-3-carbonitrile]",0.2
7,"N#Cc1cnc2cc(Br)ccc2c1N1CCC(C(=O)N2CCn3c(nnc3C(F)(F)F)C2)CC1 [Example 40, 7-bromo-4-(4-{[3-(trifluoromethyl)-5,6-dihydro[1,2,4]triazolo[4,3-a]pyrazin-7(8H)-yl]carbonyl}piperidin-1-yl)quinoline-3-carbonitrile]",12
8,"Cc1nc2ccc(F)c(F)c2c(N2CCC(C(=O)N3CCn4c(nnc4C(F)(F)F)C3)CC2)c1C#N [Example 51, 5,6-difluoro-2-methyl-4-(4-(3-(trifluoromethyl)-5,6,7,8-tetrahydro-[1,2,4]triazolo[4,3-a]pyrazine-7-carbonyl)piperidin-1-yl)quinoline-3-carbontrile]",774
9,"CC1CC(C(=O)N2CCn3c(nnc3C(F)(F)F)C2)CCN1c1c(C#N)cnc2ccc(Cl)cc12 (single isomer, unassigned) [Example 73d, 6-chloro-4-[(2R,4S) or (2S,4R)-2-methyl-4-{[3-(trifluoromethyl)-5,6-dihydro[1,2,4]triazolo[4,3-a]pyrazin-7(8H)-yl]carbonyl}piperidin-1-yl]quinoline-3-carbonitrile]",636
10,"C[C@@H]1CN(c2c(C#N)cnc3c(F)c(C4CC4)ccc23)CC[C@@H]1C(=O)N1CCn2c(nnc2C(F)(F)F)C1 [Example 67, 7-cyclopropyl-8-fluoro-4-[(3S,4S)-3-methyl-4-{[3-(trifluoromethyl)-5,6-dihydro[1,2,4]triazolo[4,3-a]pyrazin-7(8H)-yl]carbonyl}piperidin-1-yl]quinoline-3-carbonitrile]",0.89
11,"C[C@@H]1CN(c2c(C#N)cnc3cc(OC4CC4)ccc23)CC[C@@H]1C(=O)N1CCn2c(nnc2C(F)(F)F)C1 [Example 38, 7-(cyclopropyloxy)-4-[(3S,4S)-3-methyl-4-{[3-(trifluoromethyl)-5,6-dihydro[1,2,4]triazolo[4,3-a]pyrazin-7(8H)-yl]carbonyl}piperidin-1-yl]quinoline-3-carbonitrile]",0.3
12,"COc1cc(Cl)cc2c(N3CC[C@H](C(=O)N4CCn5c(nnc5C(F)(F)F)C4)[C@H](C)C3)c(C#N)cnc12 [Example 18, 6-chloro-8-methoxy-4-[(3S,4S)-3-methyl-4-{[3-(trifluoromethyl)-5,6-dihydro[1,2,4]triazolo[4,3-a]pyrazin-7(8H)-yl]carbonyl}piperidin-1-yl]quinoline-3-carbonitrile]",0.53
13,"C[C@@H]1CN(c2c(C#N)cnc3cc(-c4ncco4)ccc23)CC[C@@H]1C(=O)N1CCn2c(nnc2C(F)(F)F)C1 [Example 89, 4-((3S,4S)-3-methyl-4-(3-(trifluoromethyl)-5,6,7,8-tetrahydro-[1,2,4]triazolo[4,3-a]pyrazine-7-carbonyl)piperidin-1-yl)-7-(oxazol-2-yl)quinoline-3-carbonitrile]",0.4
14,"N#Cc1cnc2ccc(Cl)cc2c1N1CCC(C(=O)N2CCn3cncc3C2)CC1 [Example 105, 6-chloro-4-[4-(5,6-dihydroimidazo[1,5-a]pyrazin-7(8H)-ylcarbonyl)piperidin-1-yl]quinoline-3-carbonitrile]",878
15,"C[C@@H]1CN(c2c(C#N)cnc3cc(F)c(F)cc23)CC[C@@H]1C(=O)N1CCn2c(nnc2C(F)(F)F)C1 [Example 25, 6,7-difluoro-4-[(3S,4S)-3-methyl-4-{[3-(trifluoromethyl)-5,6-dihydro[1,2,4]triazolo[4,3-a]pyrazin-7(8H)-yl]carbonyl}piperidin-1-yl]quinoline-3-carbonitrile]",0.36
16,"COc1ccc2ncc(C#N)c(N3CCC(C(=O)N4CCn5c(nnc5C(F)(F)F)C4)CC3)c2c1 [Example 46, 6-methoxy-4-(4-(3-(trifluoromethyl)-5,6,7,8-tetrahydro-[1,2,4]triazolo[4,3-a]pyrazine-7-carbonyl)piperidin-1-yl)quinoline-3-carbonitrile]",68
17,"N#Cc1cnc2ccc(Cl)cc2c1N1CC[C@]2(C(=O)N3CCn4c(nnc4C(F)(F)F)C3)C[C@@H]2C1 (single isomer, unassigned) [Example 81a]",1290
18,"N#Cc1cnc2c(F)c(Cl)ccc2c1N1CCC(C(=O)N2CCn3c(nnc3C(F)(F)F)C2)CC1 [Example 41, 7-chloro-8-fluoro-4-(4-{[3-(trifluoromethyl)-5,6-dihdyro[1,2,4]triazolo[4,3-a]pyrazin-7(8H)-yl]carbonyl}piperidin-1-yl)quinoline-3-carbonitrile]",43
19,"Cn1nc(C(F)(F)F)c2c1CN(C(=O)C1CCN(c3c(C#N)cnc4ccc(Cl)cc34)CC1)CC2 [Example 113, 6-chloro-4-(4-{[1-methyl-3-(trifluoromethyl)-1,4,5,7-tetrahydro-6H-pyrazolo[3,4-c]pyridin-6-yl]carbonyl}piperidin-1-yl)quinoline-3-carbonitrile]",16.1
20,"CC[C@@H]1CN(c2c(C#N)cnc3ccc(Cl)cc23)CC[C@@H]1C(=O)N1CCn2c(nnc2C(F)(F)F)C1 [Example 75b, 6-chloro-4-[(3S,4S)-3-ethyl-4-{[3-(trifluoromethyl)-5,6-dihydro[1,2,4]triazolo[4,3-a]pyrazin-7(8H)-yl]carbonyl}piperidin-1-yl]quinoline-3-carbonitrile]",2.8
21,"Cc1nc2ccc(F)cc2c(N2CCC(C(=O)N3CCn4c(nnc4C(F)(F)F)C3)CC2)c1C#N [Example 45, 6-fluoro-2-methyl-4-(4-(3-(trifluoromethyl)-5,6,7,8-tetrahydro-[1,2,4]triazolo[4,3-a]pyrazine-7-carbonyl)piperidin-1-yl)quinoline-3-carbonitrile]",1150
22,"C[C@@H]1CN(c2c(C#N)cnc3cnc(F)cc23)CC[C@@H]1C(=O)N1CCn2c(nnc2C(F)(F)F)C1 [Example 31, 6-fluoro-4-[(3S,4S)-3-methyl-4-{[3-(trifluoromethyl)-5,6-dihydro[1,2,4]triazolo[4,3-a]pyrazin-7(8H)-yl]carbonyl}piperidin-1-yl]-1,7-naphthyridine-3-carbonitrile]",2.6
23,"COc1ccc2c(N3CC[C@H](C(=O)N4CCn5c(nnc5C(F)(F)F)C4)[C@H](C)C3)c(C#N)c(C)nc2c1 [Example 34, 7-methoxy-2-methyl-4-[(3S,4S)-3-methyl-4-{[3-(trifluoromethyl)-5,6-dihdyro[1,2,4]triazolo[4,3-a]pyrazin-7(8H)-yl]carbonyl}piperidin-1-yl]quinoline-3-carbonitrile]",0.89
24,"N#Cc1cnc2ccc(Cl)cc2c1N1CCC(C(=O)N2CCn3cnnc3C2)CC1 [Example 110, 6-chloro-4-[4-(5,6-dihydro[1,2,4]triazolo[4,3-a]pyrazin-7(8H)-ylcarbonyl)piperidin-1-yl]quinoline-3-carbonitrile]",181
25,"COc1ccc2c(N3CCC(C(=O)N4CCn5c(nnc5C(F)(F)F)C4)CC3)c(C#N)cnc2c1F [Example 42, 8-fluoro-7-methoxy-4-(4-{[3-(trifluoromethyl)-5,6-dihydro[1,2,4]triazolo[4,3-a]pyrazin-7(8H)-yl]carbonyl}piperidin-1-yl)quinoline-3-carbonitrile]",49
